Source: BindingDB's records for doi:10.1016/0014-5793(95)01389-x (Max-Planck-Institut, 1995)

Target: 5-hydroxytryptamine receptor 5A (Mus musculus, UniProt P30966)
Sequence (P30966 whole entry): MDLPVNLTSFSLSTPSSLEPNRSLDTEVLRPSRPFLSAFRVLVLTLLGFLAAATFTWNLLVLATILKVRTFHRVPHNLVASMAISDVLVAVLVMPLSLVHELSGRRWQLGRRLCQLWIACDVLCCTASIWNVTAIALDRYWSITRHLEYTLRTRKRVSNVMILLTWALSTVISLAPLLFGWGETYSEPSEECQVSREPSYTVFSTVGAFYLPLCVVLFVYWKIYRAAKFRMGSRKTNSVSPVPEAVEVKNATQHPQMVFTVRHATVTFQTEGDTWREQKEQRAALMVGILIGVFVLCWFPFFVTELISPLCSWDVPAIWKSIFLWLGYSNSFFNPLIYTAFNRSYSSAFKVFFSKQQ

Structure (SMILES)	Ki
CN1C[C@H](C(=O)N[C@]2(C)O[C@@]3(O)[C@@H]4CCCN4C(=O)[C@H](Cc4ccccc4)N3C2=O)C=C2c3cccc4[nH]cc(c34)C[C@H]21 [12'-hydroxy-2'-methyl-5'alpha-(phenylmethyl)ergotaman-3',6',18-trione]	38 nM
CN1CC(C(=O)O)C=C2c3cccc4[nH]cc(c34)CC21 (centres undefined) [NSC_622688]	2000 nM
CN(C)CCc1c[nH]c2ccc(O)cc12 [3-[2-(dimethylamino)ethyl]indol-5-ol]	2900 nM
CC[C@@H](CO)NC(=O)[C@@H]1C=C2c3cccc4c3c(cn4C)C[C@H]2N(C)C1	500 nM
